Experimental data taken from the supplement of paper PMC10627819.

Experiments:
Assay in all cases: Bliss interaction score (quartile over a dose matrix) (fitness difference); higher = more antagonism (negative = synergy)
B. subtilis 168 = system: B. subtilis 168
Summary of the method: (§1)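 Fitness was derived from optical density at entry into stationary phase, divided by the robust mean of the no-drug wells on the same plate. That reading was taken as OD595, and the ratio was capped at 1. Single-drug fitness was inferred from the combination data. The Bliss score, observed fitness minus the expected product of single-drug fitness, was summarised as quartiles over technical, biological and donor/recipient replicates.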

S. aureus DSM 20231 = system: S. aureus DSM 20231
Summary of the method: as §1

S. aureus Newman = system: S. aureus Newman
Summary of the method: as §1

S. pneumoniae D39V = system: S. pneumoniae D39V
Summary of the method: as §1
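Further: first quartile when negative (synergy) and third quartile when positive (antagonism).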

SMILES	Bliss interaction score (B. subtilis 168)	Bliss interaction score (S. aureus DSM 20231)	Bliss interaction score (S. aureus Newman)	Bliss interaction score (S. pneumoniae D39V)
N[C@@H]1CONC1=O [CycloserineD] + Cc1ncc([N+](=O)[O-])n1CCO [Metronidazole]	-0.0606	0.0317	0.0557	-0.0766
N[C@@H]1CONC1=O [CycloserineD] + Cc1onc(-c2ccccc2)c1C(=O)N[C@@H]1C(=O)N2[C@@H]1SC(C)(C)[C@@H]2C(=O)O [Oxacillin]	0.0509	0.0729	-0.0567	-0.17
N[C@@H]1CONC1=O [CycloserineD] + Clc1ccc(COC(Cn2ccnc2)c2ccc(Cl)cc2Cl)c(Cl)c1 [Miconazole]	0.0883	0.0763	-0.0328	-0.0729
N[C@@H]1CONC1=O [CycloserineD] + Cn1nnc(-c2ccc(-c3ccc(N4C[C@H](CO)OC4=O)cc3F)cn2)n1 [Tedizolid]	0.0364	-0.101	0.0593	0.126
N[C@@H]1CONC1=O [CycloserineD] + O=C1CN(/N=C/c2ccc([N+](=O)[O-])o2)C(=O)N1 [Nitrofurantoin]	0.173	0.0785	-0.0425	0.197
N[C@@H]1CONC1=O [CycloserineD] + O=C(O[C@@H]1Cc2c(O)cc(O)cc2O[C@@H]1c1cc(O)c(O)c(O)c1)c1cc(O)c(O)c(O)c1 [EGCG]	-0.114	-0.107	0.0286	-0.0875
N[C@@H]1CONC1=O [CycloserineD] + Oc1cc(Cl)ccc1Oc1ccc(Cl)cc1Cl [Triclosan]	0.0246	0.0965	0.0356	-0.11
O=C(O[C@@H]1Cc2c(O)cc(O)cc2O[C@@H]1c1cc(O)c(O)c(O)c1)c1cc(O)c(O)c(O)c1 [EGCG] + CC1(C)S[C@@H]2[C@H](NC(=O)Cc3ccccc3)C(=O)N2[C@H]1C(=O)O [PenicillinG]	0.0517	0.059	0.0531	0.108
O=C(O[C@@H]1Cc2c(O)cc(O)cc2O[C@@H]1c1cc(O)c(O)c(O)c1)c1cc(O)c(O)c(O)c1 [EGCG] + CC(=O)O[C@H]1C[C@@]2(C)[C@@H](C[C@@H](O)[C@H]3[C@@]4(C)CC[C@@H](O)[C@@H](C)[C@@H]4CC[C@@]32C)/C1=C(\CCC=C(C)C)C(=O)O [Fusidic acid]	0.0767	-0.019	-0.0283	-0.143
O=C(O[C@@H]1Cc2c(O)cc(O)cc2O[C@@H]1c1cc(O)c(O)c(O)c1)c1cc(O)c(O)c(O)c1 [EGCG] + CC[C@H]1OC(=O)[C@H](C)C(=O)[C@H](C)[C@@H](O[C@@H]2O[C@H](C)C[C@H](N(C)C)[C@H]2O)[C@](C)(OC)C[C@@H](C)C(=O)[C@H](C)[C@H]2N(CCCCn3cnc(-c4cccnc4)c3)C(=O)O[C@]12C [Telithromycin]	0.0403	-0.079	0.0859	0.0892
O=C(O[C@@H]1Cc2c(O)cc(O)cc2O[C@@H]1c1cc(O)c(O)c(O)c1)c1cc(O)c(O)c(O)c1 [EGCG] + CC[C@H]1OC(=O)[C@H](C)[C@@H](O[C@H]2C[C@@](C)(OC)[C@@H](O)[C@H](C)O2)[C@H](C)[C@@H](O[C@@H]2O[C@H](C)C[C@H](N(C)C)[C@H]2O)[C@](C)(O)C[C@@H](C)C(=O)[C@H](C)[C@@H](O)[C@]1(C)O [Erythromycin]	0.0527	-0.0558	-0.0582	0.0597
O=C(O[C@@H]1Cc2c(O)cc(O)cc2O[C@@H]1c1cc(O)c(O)c(O)c1)c1cc(O)c(O)c(O)c1 [EGCG] + CN[C@H](CC(C)C)C(=O)N[C@H]1C(=O)N[C@@H](CC(N)=O)C(=O)N[C@H]2C(=O)N[C@H]3C(=O)N[C@H](C(=O)N[C@H](C(=O)O)c4cc(O)cc(O)c4-c4cc3ccc4O)[C@H](O[C@H]3C[C@](C)(N)[C@@H](O)[C@H](C)O3)c3ccc(c(Cl)c3)Oc3cc2cc(c3O[C@@H]2O[C@H](CO)[C@@H](O)[C@H](O)[C@H]2O[C@H]2C[C@](C)(NCc3ccc(-c4ccc(Cl)cc4)cc3)[C@@H](O)[C@H](C)O2)Oc2ccc(cc2Cl)[C@H]1O [Oritavancin]	0.0249	0.176	0.318	0.0545
O=C(O[C@@H]1Cc2c(O)cc(O)cc2O[C@@H]1c1cc(O)c(O)c(O)c1)c1cc(O)c(O)c(O)c1 [EGCG] + CO[C@@]12[C@H](COC(N)=O)C3=C(C(=O)C(C)=C(N)C3=O)N1C[C@@H]1N[C@@H]12 [MitomycinC]	-0.0639	-0.0345	0.051	0.0987
O=C(O[C@@H]1Cc2c(O)cc(O)cc2O[C@@H]1c1cc(O)c(O)c(O)c1)c1cc(O)c(O)c(O)c1 [EGCG] + Oc1cc(Cl)ccc1Oc1ccc(Cl)cc1Cl [Triclosan]	-0.0336	0.0962	0.0222	-0.0791
